This note sets out measurements from ChEMBL document CHEMBL5725537, “Pyrazolo-pyrrolidin-4-one derivatives and their use in the treatment of disease” (2017).

For orientation: IC50 means the concentration needed to halve the response being measured.

In assay [1] the target is Bromodomain-containing protein 3 (Homo sapiens, UniProt Q15059). The assay is described as follows: (§1) TR-FRET In-Vitro Binding Assays for BRD2, BRD3, and BRD4: All assays were performed in 384 well microtiter plates. Each assay plate contained 8-point serial dilutions for 40 test compounds, plus 16 high- and 16 low controls. Liquid handling and incubation steps were done on an Innovadyne Nanodrop Express equipped with a robotic arm (Thermo CatX, Perkin Elmer/Caliper Twister II) and an incubator (Liconic STX40, Thermo Cytomat 2C450). The assay plates were prepared by addition of 50 nl per well of compound solution in 90% DMSO HummingBird nanodispenser (Zinsser Analytic). The assay was started by stepwise addition of 4.5 μl per well of bromo domain protein (50 mM HEPES, pH 7.5, 0.005% Tween20, 0.1% BSA, 50 mM NaCl, 45 nM His-Brd2(60-472) or 45 nM His-Brd3(20-477) or 45 nM His-Brd4(44-477) all proteins produced in-house) and 4.5 μl per well of peptide solution (50 mM HEPES, pH 7.5, 0.005% Tween20, 0.1% BSA, 50 mM NaCl, 60 nM acetyl-histone H4 (AcK 5, 8, 12, 16) (Biosyntan GmbH)). Reactions were incubated at 30° C. for 35 minutes. Subsequently 4.5 μl per well detection mix (50 mM HEPES, pH 7.5, 0.005% Tween20, 0.1% BSA, 50 mM NaCl, 3 nM Eu-labeled anti-His6 antibody, 21 nM streptavidin-allophycocyanin) were added. After 35 minutes incubation at 30° C., plates were measured in a Perkin Elmer EnVision multilabel reader. Concentrations causing 50% inhibition (1050) values were determined from percent inhibition values at different compound concentrations by non-linear regression analysis. (In general: TR-FRET usually uses a lanthanide donor and a delayed reading to cut background.)
Chain of Bromodomain-containing protein 3 (Q15059 whole entry, the tested form may be a part): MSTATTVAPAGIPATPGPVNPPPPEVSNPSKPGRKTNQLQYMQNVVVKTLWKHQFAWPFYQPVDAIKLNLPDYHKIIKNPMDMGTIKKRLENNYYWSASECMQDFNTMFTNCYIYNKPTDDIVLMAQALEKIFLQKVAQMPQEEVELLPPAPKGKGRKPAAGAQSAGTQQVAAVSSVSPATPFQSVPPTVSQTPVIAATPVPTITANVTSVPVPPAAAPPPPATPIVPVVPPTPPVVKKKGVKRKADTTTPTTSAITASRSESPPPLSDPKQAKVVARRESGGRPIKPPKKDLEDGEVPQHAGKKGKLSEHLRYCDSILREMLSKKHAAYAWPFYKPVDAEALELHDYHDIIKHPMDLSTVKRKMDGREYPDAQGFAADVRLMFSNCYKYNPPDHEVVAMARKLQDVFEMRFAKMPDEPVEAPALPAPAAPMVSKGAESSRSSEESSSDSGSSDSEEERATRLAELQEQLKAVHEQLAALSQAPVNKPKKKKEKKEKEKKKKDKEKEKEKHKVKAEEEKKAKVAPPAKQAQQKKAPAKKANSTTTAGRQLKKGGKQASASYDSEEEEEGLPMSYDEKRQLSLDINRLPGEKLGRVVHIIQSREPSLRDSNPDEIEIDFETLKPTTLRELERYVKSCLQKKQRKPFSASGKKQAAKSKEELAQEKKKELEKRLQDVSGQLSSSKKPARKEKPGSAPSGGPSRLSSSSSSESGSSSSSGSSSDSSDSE

The target in assay [2] is Bromodomain-containing protein 4 (Homo sapiens, UniProt O60885). The description is as §1.
In a further assay the target is CREB-binding protein (Homo sapiens, UniProt Q92793). The assay is described as follows: AlphaScreen In-Vitro Binding Assay for CREBBP: In order to assess bromodomain selectivity, we set up a binding assay using the bromodomain encoded by the CREBBP gene. […] Reactions were incubated at 30° C. for 35 minutes. Subsequently 4.5 μl per well detection mix (50 mM HEPES, pH 7.5, 0.005% Tween20, 0.02% BSA, 150 mM NaCl, 45 μg/ml Ni-chelate acceptor beads, 45 μg/ml streptavidin-donor beads) (Perkin Elmer)) were added. After 60 minutes incubation at room temperature, plates were measured in a Perkin Elmer EnVision multilabel reader. IC50 values were determined from percent inhibition values at different compound concentrations by non-linear regression analysis. (In general: In Alpha technology, singlet oxygen from a donor bead excites a nearby acceptor bead.)
Chain of CREB-binding protein (Q92793 whole entry): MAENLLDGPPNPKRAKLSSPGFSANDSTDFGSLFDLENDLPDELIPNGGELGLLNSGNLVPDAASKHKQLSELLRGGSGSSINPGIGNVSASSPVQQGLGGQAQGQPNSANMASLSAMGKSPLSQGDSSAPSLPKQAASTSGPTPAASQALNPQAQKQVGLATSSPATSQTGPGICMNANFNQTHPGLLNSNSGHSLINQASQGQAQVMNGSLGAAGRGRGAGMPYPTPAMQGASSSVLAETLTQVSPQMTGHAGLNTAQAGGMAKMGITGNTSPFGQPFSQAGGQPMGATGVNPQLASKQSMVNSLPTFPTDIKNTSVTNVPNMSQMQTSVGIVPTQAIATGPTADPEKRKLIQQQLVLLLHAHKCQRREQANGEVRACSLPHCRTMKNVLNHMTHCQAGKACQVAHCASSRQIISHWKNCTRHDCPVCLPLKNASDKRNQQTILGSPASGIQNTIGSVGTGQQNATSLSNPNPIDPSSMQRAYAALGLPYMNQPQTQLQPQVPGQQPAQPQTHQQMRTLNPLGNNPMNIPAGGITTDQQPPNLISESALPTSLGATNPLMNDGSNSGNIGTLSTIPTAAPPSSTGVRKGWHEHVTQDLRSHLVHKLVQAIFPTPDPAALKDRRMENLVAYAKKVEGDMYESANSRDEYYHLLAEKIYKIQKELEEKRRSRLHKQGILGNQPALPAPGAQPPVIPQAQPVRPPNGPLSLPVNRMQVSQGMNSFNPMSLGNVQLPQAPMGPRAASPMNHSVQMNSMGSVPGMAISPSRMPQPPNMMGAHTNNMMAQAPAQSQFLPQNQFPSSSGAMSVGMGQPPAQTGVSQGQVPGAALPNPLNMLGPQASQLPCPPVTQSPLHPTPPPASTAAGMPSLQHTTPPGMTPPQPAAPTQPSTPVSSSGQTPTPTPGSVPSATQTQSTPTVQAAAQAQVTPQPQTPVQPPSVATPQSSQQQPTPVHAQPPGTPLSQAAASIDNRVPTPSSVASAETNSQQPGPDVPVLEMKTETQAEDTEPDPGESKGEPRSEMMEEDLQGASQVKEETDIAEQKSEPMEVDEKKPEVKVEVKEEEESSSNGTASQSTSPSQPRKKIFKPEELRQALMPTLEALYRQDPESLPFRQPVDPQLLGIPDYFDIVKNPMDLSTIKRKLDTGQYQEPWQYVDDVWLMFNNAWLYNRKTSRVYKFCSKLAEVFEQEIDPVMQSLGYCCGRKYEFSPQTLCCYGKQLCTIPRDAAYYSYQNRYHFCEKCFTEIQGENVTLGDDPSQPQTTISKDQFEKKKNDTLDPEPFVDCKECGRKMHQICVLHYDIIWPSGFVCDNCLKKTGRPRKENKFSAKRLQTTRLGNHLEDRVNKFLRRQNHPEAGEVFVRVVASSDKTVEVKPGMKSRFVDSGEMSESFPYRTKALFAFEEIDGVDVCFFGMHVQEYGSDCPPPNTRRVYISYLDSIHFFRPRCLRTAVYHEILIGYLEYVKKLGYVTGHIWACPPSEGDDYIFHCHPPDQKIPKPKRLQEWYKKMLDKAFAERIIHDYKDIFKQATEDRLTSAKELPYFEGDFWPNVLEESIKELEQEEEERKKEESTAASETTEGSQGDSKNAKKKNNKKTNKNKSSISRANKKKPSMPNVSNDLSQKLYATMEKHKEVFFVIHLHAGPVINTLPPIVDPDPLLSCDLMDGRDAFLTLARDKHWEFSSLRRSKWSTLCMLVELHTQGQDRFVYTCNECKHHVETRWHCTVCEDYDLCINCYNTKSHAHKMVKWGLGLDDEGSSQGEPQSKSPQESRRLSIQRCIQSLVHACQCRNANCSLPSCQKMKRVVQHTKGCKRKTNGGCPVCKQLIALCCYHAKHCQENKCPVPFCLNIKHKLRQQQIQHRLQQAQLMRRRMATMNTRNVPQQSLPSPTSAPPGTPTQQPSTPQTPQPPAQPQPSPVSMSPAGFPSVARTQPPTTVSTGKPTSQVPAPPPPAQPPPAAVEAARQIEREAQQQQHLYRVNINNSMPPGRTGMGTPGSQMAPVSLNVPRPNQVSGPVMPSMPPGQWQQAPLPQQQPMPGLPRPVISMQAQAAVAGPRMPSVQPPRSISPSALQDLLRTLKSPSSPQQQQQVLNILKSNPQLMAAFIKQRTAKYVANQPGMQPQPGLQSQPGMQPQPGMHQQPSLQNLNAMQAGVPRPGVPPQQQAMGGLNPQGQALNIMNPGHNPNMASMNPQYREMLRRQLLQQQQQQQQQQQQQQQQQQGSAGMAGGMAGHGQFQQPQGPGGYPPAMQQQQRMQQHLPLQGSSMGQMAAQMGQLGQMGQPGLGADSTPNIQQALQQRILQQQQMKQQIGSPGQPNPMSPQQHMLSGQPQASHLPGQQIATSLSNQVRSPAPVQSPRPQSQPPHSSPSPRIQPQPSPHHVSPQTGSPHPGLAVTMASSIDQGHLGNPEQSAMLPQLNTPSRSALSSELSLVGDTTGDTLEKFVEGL

Assay [3] has as its target Bromodomain-containing protein 2 (Homo sapiens, UniProt P25440). The assay is described as §1.

Chain of Bromodomain-containing protein 2 (P25440 whole entry): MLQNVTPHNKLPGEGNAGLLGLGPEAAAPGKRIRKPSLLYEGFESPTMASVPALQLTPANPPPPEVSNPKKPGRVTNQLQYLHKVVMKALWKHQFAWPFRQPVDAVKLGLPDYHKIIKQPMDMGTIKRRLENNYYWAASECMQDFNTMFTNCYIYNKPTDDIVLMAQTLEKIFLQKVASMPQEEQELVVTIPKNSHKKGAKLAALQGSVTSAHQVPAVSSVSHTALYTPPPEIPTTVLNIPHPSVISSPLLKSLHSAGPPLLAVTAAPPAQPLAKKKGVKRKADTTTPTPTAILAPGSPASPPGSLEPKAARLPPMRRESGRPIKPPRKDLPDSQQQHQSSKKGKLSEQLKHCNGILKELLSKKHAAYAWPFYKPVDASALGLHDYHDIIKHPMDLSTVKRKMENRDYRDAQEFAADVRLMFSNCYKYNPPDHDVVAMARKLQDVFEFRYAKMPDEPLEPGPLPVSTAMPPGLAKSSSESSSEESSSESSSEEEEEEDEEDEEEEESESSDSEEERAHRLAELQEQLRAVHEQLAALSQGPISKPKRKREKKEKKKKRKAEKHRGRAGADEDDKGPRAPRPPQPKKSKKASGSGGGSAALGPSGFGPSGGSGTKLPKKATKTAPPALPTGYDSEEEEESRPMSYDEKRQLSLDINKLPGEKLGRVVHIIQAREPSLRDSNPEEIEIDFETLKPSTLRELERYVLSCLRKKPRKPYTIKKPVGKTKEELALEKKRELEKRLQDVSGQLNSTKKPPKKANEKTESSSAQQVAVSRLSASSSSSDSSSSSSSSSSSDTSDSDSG

On to `CCOc1ncccc1-n1nc(C)c2c1C(c1ccc(Cl)cc1)N(c1cc(C)c(=O)n(C)c1)C2=O` (stereo unspecified), for which the IC50 in assay [1] is 0.062 µM; in assay [2], 0.079 µM; at CREB-binding protein it was 3.1 µM.
Consider `COc1ncccc1-n1nc(C)c2c1C(c1ccc(Cl)cc1)N(c1cc(C)c(=O)n(C)c1)C2=O` (stereo unspecified), for which the half-maximal inhibitory concentration (IC50) in assay [3] worked out at 0.078 µM; in assay [2], 0.086 µM; on CREB-binding protein, 4 µM.
